According to patent US9005670B2, “Use of histone acetyltransferase inhibitors as novel anti-cancer therapies” (The Johns Hopkins University, priority 2010, dated 2015):

Columns and labels:
[1] = target: T1, MOZ histone acetyltransferase (Homo sapiens, UniProt Q92794); assay: MOZ direct radioactive HAT assay; format: biochemical; conditions: 10 μM compound; read-out: Percent inhibition of acetyltransferase, Moz
T1 construct: made in house
Description: (§1) PCAF reactions were performed in 100 mM HEPES, pH 7.9, and contained 200 μM TPP, 5 mM MgCl2, 1 mM DTT, 50 mM NaCl, 0.05 mg/mL BSA, 200 μM NAD, 2.4 mM α-KG, 30 μM acetyl-CoA, 0.037 units α-KGDH, 3.3% DMSO, and 10 μM inhibitor. Reactions took place at 30° C. Reactions were initiated by addition of 10 nM PCAF and were followed at 340 nm over the linear portion of the curve below 10% turnover. AANAT reactions were performed in 100 mM NH4 OAc, pH 6.8, and contained 200 μM TPP, 5 mM MgCl2, 1 mM DTT, 50 mM NaCl, 0.05 mg/mL BSA, 200 μM NAD, 2.4 mM α-KG, 200 μM AcCoA, 0.1 units α-KGDH, 3.3% DMSO, and 10 μM inhibitor. Reactions took place at 25° C. Reactions were initiated with addition of 65 nM AANAT, and followed at 340 nm, as above. Percent inhibition values were compared to those with p300, which were repeated using the protocol given above. […]
(§2) HAT assays with yeast GCN5, SAS complex, MOZ, and Rtt109/Vps75 complex used the direct radioactive assay described above. […] The amount of enzyme used in each assay was estimated by comparing Coomassie Blue staining of samples with bovine serum albumin standards, analyzed by SDS-PAGE. […] The rate of ^14C-incorporation into histone H3 was quantified by autoradiography. […]

WM983A melanoma cells [2] = assay: cell cycle analysis, propidium iodide FACS; format: cell-based, human; conditions: 48 hours
Description: The degree of growth arrest observed in these experiments corresponds with the decrease in ^3H-thymidine incorporation described above.
Cells treated with C646 or DMSO were stained with propidium iodide (PI). Briefly, equal number of cells (greater than 10 6) in 0.5 ml PBS were fixed in 70% ethanol for at least 2 h at 4° C. A stock staining solution containing 10 ml of 0.1% Triton X-100 in PBS, 400 μl of RNase cocktail (equivalent of −200 units of RNase A) (Ambion), and 200 μl of 1 mg/ml PI was prepared. Fixed cells were spun at 200 g for 5 min (Beckman Coulter Allegra® X-12R, with an SX4750A rotor), re-hydrated in 5 ml PBS, and spun again to remove all traces of ethanol. Cells were stained with 1 ml staining solution for 20 min at 37° C., then immediately analyzed on a FACSCalibur flow cytometer (BD Biosciences) at the Johns Hopkins Flow Cytometry Core Facility. Data acquisition and analysis were performed with the CellQuest software (BD). WinMDI 2.9 (http://facs.scripps.edu.software.html) was also used for data presentation.

LN382 glioblastoma cells = assay: AlamarBlue growth inhibition, LN382; format: cell-based; conditions: LN382, 72 hours
Description: Dose response curves were generated using the AlamarBlue® assay (Invitrogen, Carlsbad, Calif.).
When inhibition was assessed using the AlamarBlue® assay (Invitrogen, Carlsbad, Calif.), cells were initially seeded at 500 cells per well in a 96-well plate. AlamarBlue® is a non-toxic reagent that measures cellular metabolic activity. Its main ingredient is resazurin, a non-fluorescent indicator dye that is reduced to bright red-fluorescent resorufin in metabolically active cells. AlamarBlue® was added to growth medium at 1/10 of the total volume (e.g., 20 μl in 200 μl total volume). […] Fluorescence reading was taken from the same plate every day for 5 days to ensure that the saturation point was not reached. Fluorescence intensity is proportional to the number of live cells in the plate.

yeast GCN5 = target: T2, yeast GCN5 (Saccharomyces cerevisiae, UniProt Q03330); assay: GCN5 direct radioactive HAT assay; format: biochemical; conditions: 10 μM compound; read-out: Percent inhibition of acetyltransferase, GCN5
T2 construct: made in house
T2 sequence (Q03330 whole entry): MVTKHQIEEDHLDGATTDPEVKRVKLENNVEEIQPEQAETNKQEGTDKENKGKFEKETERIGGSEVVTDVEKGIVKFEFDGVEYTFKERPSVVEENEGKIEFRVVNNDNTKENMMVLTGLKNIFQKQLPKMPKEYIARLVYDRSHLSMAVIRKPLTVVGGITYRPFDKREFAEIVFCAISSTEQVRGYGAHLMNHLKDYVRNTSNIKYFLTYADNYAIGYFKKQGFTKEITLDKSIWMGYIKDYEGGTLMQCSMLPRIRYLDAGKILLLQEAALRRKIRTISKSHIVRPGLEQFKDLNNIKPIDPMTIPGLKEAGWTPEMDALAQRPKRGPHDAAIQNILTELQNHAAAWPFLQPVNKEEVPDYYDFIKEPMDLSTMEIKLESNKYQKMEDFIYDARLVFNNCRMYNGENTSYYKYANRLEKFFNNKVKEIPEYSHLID
Description: as §1, §2

WM35 melanoma cells = assay: apoptosis, annexin V and propidium iodide FACS; format: cell-based, human; conditions: 72 hours, low serum concentrations
Description: FIG. 14A includes scatter plots. […] WM35 melanoma cells were also treated with camptothecin as a positive control for apoptosis. FIGS. 14B and 14C include images of the treated cells stained for senescence-associated beta galactosidase.

WM983A melanoma cells [3] = assay: 3H-thymidine incorporation, WM983A; conditions: Homo sapiens, read-out: IC50 (proliferation, 3H-thymidine incorporation)

T1 sequence (Q92794 497-780 limits assumed): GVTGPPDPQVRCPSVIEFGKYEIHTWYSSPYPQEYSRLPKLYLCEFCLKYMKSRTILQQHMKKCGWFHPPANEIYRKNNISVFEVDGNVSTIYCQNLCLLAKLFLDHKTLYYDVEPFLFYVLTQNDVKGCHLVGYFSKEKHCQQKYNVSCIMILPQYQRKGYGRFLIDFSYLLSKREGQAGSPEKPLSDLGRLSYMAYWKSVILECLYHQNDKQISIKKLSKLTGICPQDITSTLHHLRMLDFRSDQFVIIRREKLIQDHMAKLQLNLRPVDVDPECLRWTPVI

inhibition at 10 µM [1]: < 10%
IC50 (LN382 glioblastoma cells): 35.5 µM
inhibition at 10 µM (yeast GCN5): < 10%
IC50 (WM983A melanoma cells [3]): 10 to 20 µM
SMILES: CC1=NN(c2ccc(C(=O)O)cc2)C(=O)C1=Cc1ccc(-c2cc(C)c(C)cc2[N+](=O)[O-])o1 [Compound C646, 4-(4,5-dihydro-3-methyl-4-((5-(4,5-dimethyl-2-nitrophenyl)furan-2-yl)methylene)-5-oxopyrazol-1-yl)benzoic acid]
cell cycle distribution (WM983A melanoma cells [2]): decreased the number of cells in S and G2 phase
apoptosis (WM35 melanoma cells): induced WM35 cell apoptosis
